Measured values taken from BigSolDB 2.1.

NC(=O)c1c(F)c(F)c(F)c(F)c1F
in water
Settings | solubility (mole fraction)
291.8 K | 0.00018
297.5 K | 0.00026
303.3 K | 0.00034
310.3 K | 0.0006

O=C(Nc1c(F)c(F)c(F)c(F)c1F)C(=O)Nc1c(F)c(F)c(F)c(F)c1F
Settings | solubility (mole fraction)
in 2-butanone, 284.2 K | 0.00793
in 2-butanone, 287.1 K | 0.00854
in 2-butanone, 289.4 K | 0.00897
in 2-butanone, 293.4 K | 0.00984
in 2-butanone, 303.3 K | 0.0126
in 2-butanone, 314.7 K | 0.0168
in 2-butanone, 323.9 K | 0.0209
in 2-butanone, 327.2 K | 0.023
in 2-butanone, 331.1 K | 0.025
in 2-butanone, 333.4 K | 0.0271
in 2-butanone, 336.9 K | 0.029
in ethyl acetate, 281.1 K | 0.00822
in ethyl acetate, 285.6 K | 0.00934
in ethyl acetate, 291.9 K | 0.0105
in ethyl acetate, 293.5 K | 0.0116
in ethyl acetate, 303.7 K | 0.0138
in ethyl acetate, 310.9 K | 0.017
in ethyl acetate, 321.4 K | 0.0206
in ethyl acetate, 325.1 K | 0.0229
in ethyl acetate, 326.7 K | 0.0251
in ethyl acetate, 332.2 K | 0.0274
in ethyl acetate, 334.9 K | 0.0295

O=c1[nH]c(=O)n([C@H]2C[C@H](O)[C@@H](CO)O2)cc1I
in water
Settings | solubility (mole fraction)
302.2 K | 0.00013
312.6 K | 0.00021
317.8 K | 0.00026
321.9 K | 0.00039
323 K | 0.00027
326.2 K | 0.00041
332 K | 0.00051
336 K | 0.00047
343.1 K | 0.00076
348.6 K | 0.00089
349.8 K | 0.00102
